Converted amounts (≈) assume the structure as drawn. “And” between values parts separate entries of the source, which are not always exact repeats. Equal values may be shown once.
Key:
vaccinia virus = assay: microbe, parasite or virus in culture; assay type: cell-based; details: for IC50: Orthopoxvirus vaccinia, Vero, read-out: ID50 (inhibitory dose 50; 50% reduction in virus replication), vaccinia virus in Vero cells, called MIC50; for TI (therapeutic index, MTC/ID50) / Virus Rating (VR): Vero cells; for TI (therapeutic index, MTC/ID50): TI>50 indicates a useful compound; for Virus Rating (VR): VR >=1.0 significant, 0.5-0.9 marginal, <0.5 inactive, repeat lines are repeat tests
[1] = Cytotoxicity of test compound to Vero host cells (minimum toxic concentration); details: monkey, MTC (minimum toxic concentration), footnote: lowest concentration giving 50% reduction in percent survival of viable host cells

Compound	IC50 (vaccinia virus)	TI (therapeutic index, MTC/ID50) (vaccinia virus)	Virus Rating (VR) (vaccinia virus)	MCC [1]
Nc1c2ncn([C@H]3C[C@H](O)[C@@H](CO)O3)c2nc[n+]1[O-] [Compound 1b, 2'-Deoxyadenosine-N^1-oxide]	3.06 µg/mL (≈ 11.5 µM)	104	> 1.7	> 320 µg/mL
N=c1c2ncn([C@@H]3O[C@H](CO)[C@@H](O)[C@H]3O)c2ncn1OCc1cc(F)ccc1F.[O-][Cl+3]([O-])([O-])O [Compound 2gg, 1-(2,5-Difluorobenzyloxy)adenosine, perchloric acid salt]	1.77 µg/mL	180 and 115	–	> 320 µg/mL
COc1ccc(COn2cnc3c(ncn3[C@@H]3O[C@H](CO)[C@@H](O)[C@H]3O)c2=N)cc1.[O-][Cl+3]([O-])([O-])O [Compound 2d, 1-(4-Methoxybenzyloxy)adenosine, perchloric acid salt]	0.01 µg/mL	–	–	–
COc1ccccc1COn1cnc2c(ncn2[C@@H]2O[C@H](CO)[C@@H](O)[C@H]2O)c1=N.[O-][Cl+3]([O-])([O-])O [Compound 2y, 1-(2-methoxybenzyloxy)adenosine, perchloric acid salt]	0.17 µg/mL	1935 and > 3020	–	320 µg/mL
Nc1c2ncn([C@@H]3O[C@H](CO)[C@@H](O)[C@H]3O)c2nc[n+]1[O-] [Compound 1a, Adenosine-N^1 -oxide]	0.32 µg/mL (≈ 1.13 µM)	312	> 2.4	100 µg/mL
N=c1c2ncn([C@@H]3O[C@H](CO)[C@@H](O)[C@H]3O)c2ncn1OCc1ccc(F)cc1F.[O-][Cl+3]([O-])([O-])O [Compound 2j, 1-(2,4-Difluorobenzyloxy)adenosine, perchloric acid salt]	0.31 µg/mL	1029	> 2.4	> 320 µg/mL
Cc1ccccc1COn1cnc2c(ncn2[C@@H]2O[C@H](CO)[C@@H](O)[C@H]2O)c1=N.[O-][Cl+3]([O-])([O-])O [Compound 2c, 1-(2-Methylbenzyloxy)adenosine, perchloric acid salt]	0.32 µg/mL	1000	> 2.4	> 320 µg/mL
COc1cccc(COn2cnc3c(ncn3[C@@H]3O[C@H](CO)[C@@H](O)[C@H]3O)c2=N)c1.[O-][Cl+3]([O-])([O-])O [Compound 2e, 1-(3-Methoxybenzyloxy)adenosine, perchloric acid salt]	0.2 µg/mL	1609 and 1075	–	> 320 µg/mL
N=c1c2ncn([C@@H]3O[C@H](CO)[C@@H](O)[C@H]3O)c2ncn1OCc1ccc(C(F)(F)F)cc1C(F)(F)F.[O-][Cl+3]([O-])([O-])O [Compound 2n, 1-[2,4-Bis(trifluoromethyl)benzyloxy]adenosine, perchloric acid salt]	1.45 µg/mL	221 and 181	–	> 320 µg/mL
N=c1c2ncn([C@@H]3O[C@H](CO)[C@@H](O)[C@H]3O)c2ncn1OCc1ccc(F)c(F)c1.[O-][Cl+3]([O-])([O-])O [Compound 2k, 1-(3,4-Difluorobenzyloxy)adenosine, perchloric acid salt]	0.48 µg/mL	671 and 434	> 2.3	> 320 µg/mL
Cc1cccc(COn2cnc3c(ncn3[C@@H]3O[C@H](CO)[C@@H](O)[C@H]3O)c2=N)c1.[O-][Cl+3]([O-])([O-])O [Compound 2a, 1-(3-Methylbenzyloxy)adenosine, perchloric acid salt]	0.41 µg/mL	781 and 487	> 2.4	> 320 µg/mL
Cc1ccc(COn2cnc3c(ncn3[C@@H]3O[C@H](CO)[C@@H](O)[C@H]3O)c2=N)cc1.[O-][Cl+3]([O-])([O-])O [Compound 2b, 1-(4-Methylbenzyloxy)adenosine, perchloric acid salt]	0.11 µg/mL	917	2.4	100 µg/mL
N=c1c2ncn([C@@H]3O[C@H](CO)[C@@H](O)[C@H]3O)c2ncn1OCc1ccc([N+](=O)[O-])cc1.[O-][Cl+3]([O-])([O-])O [Compound 2s, 1-(4-Nitrobenzyloxy)adenosine, perchloric acid salt]	2.34 µg/mL	137 and 89	> 1.7	> 320 µg/mL
N#Cc1cccc(COn2cnc3c(ncn3[C@@H]3O[C@H](CO)[C@@H](O)[C@H]3O)c2=N)c1.[O-][Cl+3]([O-])([O-])O [Compound 2x, 1-(3-Cyanobenzyloxy)adenosine, perchloric acid salt]	–	182 and 134	–	> 320 µg/mL
COC(=O)c1cccc(COn2cnc3c(ncn3[C@@H]3O[C@H](CO)[C@@H](O)[C@H]3O)c2=N)c1.[O-][Cl+3]([O-])([O-])O [Compound 2u, 1-(3-Methoxycarbonylbenzyloxy)adenosine, perchloric acid salt]	1.55 µg/mL	207 and 139	–	> 320 µg/mL
COc1ccc([N+](=O)[O-])cc1COn1cnc2c(ncn2[C@@H]2O[C@H](CO)[C@@H](O)[C@H]2O)c1=N.[O-][Cl+3]([O-])([O-])O [Compound 2t, 1-(2-Methoxy-5-nitrobenzyloxy)adenosine, perchloric acid salt]	2.01 µg/mL	160 and 87	–	> 320 µg/mL
N=c1c2ncn([C@@H]3O[C@H](CO)[C@@H](O)[C@H]3O)c2ncn1OCc1ccccc1Cl.[O-][Cl+3]([O-])([O-])O [Compound 2o, 1-(2-Chlorobenzyloxy)adenosine, perchloric acid salt]	1.01 µg/mL	318 and 251	–	> 320 µg/mL
Nc1ncnc2c1ncn2[C@@H]1O[C@H](CO)[C@@H](O)[C@@H]1O [AraA, 9-β-D-arabinofuranosyladenine, reference compound]	2 µg/mL (≈ 7.48 µM)	13.3	1.0	> 320 µg/mL
N=c1c2ncn([C@@H]3O[C@H](CO)[C@@H](O)[C@H]3O)c2ncn1OCc1cc(F)cc(F)c1.[O-][Cl+3]([O-])([O-])O [Compound 2ff, 1-(3,5-Difluorobenzyloxy)adenosine, perchloric acid salt]	1.55 µg/mL	205 and 175	> 2.0	> 320 µg/mL
N#Cc1ccccc1COn1cnc2c(ncn2[C@@H]2O[C@H](CO)[C@@H](O)[C@H]2O)c1=N.[O-][Cl+3]([O-])([O-])O [Compound 2w, 1-(2-Cyanobenzyloxy)adenosine, perchloric acid salt]	–	–	–	> 320 µg/mL
N=c1c2ncn([C@@H]3O[C@H](CO)[C@@H](O)[C@H]3O)c2ncn1OCc1cc(C(F)(F)F)cc(C(F)(F)F)c1.[O-][Cl+3]([O-])([O-])O [Compound 2m, 1-[3,5-Bis(trifluoromethyl)benzyloxy]adenosine, perchloric acid salt]	1.03 µg/mL	311 and 314	–	> 320 µg/mL
Cc1cc(C)cc(COn2cnc3c(ncn3[C@@H]3O[C@H](CO)[C@@H](O)[C@H]3O)c2=N)c1.[O-][Cl+3]([O-])([O-])O [Compound 2aa, 1-(3,5-Dimethylbenzyloxy)adenosine, perchloric acid salt]	0.45 µg/mL	710 and > 1000	–	320 µg/mL
N=c1c2ncn([C@@H]3O[C@H](CO)[C@@H](O)[C@H]3O)c2ncn1OCc1cccc([N+](=O)[O-])c1.[O-][Cl+3]([O-])([O-])O [Compound 2r, 1-(3-Nitrobenzyloxy)adenosine, perchloric acid salt]	10 µg/mL	32 and 30	–	> 320 µg/mL
Cc1ccc(C)c(COn2cnc3c(ncn3[C@@H]3O[C@H](CO)[C@@H](O)[C@H]3O)c2=N)c1.[O-][Cl+3]([O-])([O-])O [Compound 2bb, 1-(2,5-Dimethylbenzyloxy)adenosine, perchloric acid salt]	0.38 µg/mL	> 850 and > 1350	–	320 µg/mL
N=c1c2ncn([C@@H]3O[C@H](CO)[C@@H](O)[C@H]3O)c2ncn1OCc1ccc(F)cc1.[O-][Cl+3]([O-])([O-])O [Compound 2i, 1-(4-Fluorobenzyloxy)adenosine, perchloric acid salt]	2.41 µg/mL	133 and 160	–	> 320 µg/mL
N=c1c2ncn([C@@H]3O[C@H](CO)[C@@H](O)[C@H]3O)c2ncn1OCc1ccccc1C(F)(F)F.[O-][Cl+3]([O-])([O-])O [Compound 2l, 1-(2-Trifluoromethylbenzyloxy)adenosine, perchloric acid salt]	0.82 µg/mL	391	> 2.2	> 320 µg/mL
N=c1c2ncn([C@@H]3O[C@H](CO)[C@@H](O)[C@H]3O)c2ncn1OCc1ccccc1[N+](=O)[O-].[O-][Cl+3]([O-])([O-])O [Compound 2q, 1-(2-Nitrobenzyloxy)adenosine, perchloric acid salt]	1.03 µg/mL	310 and 181	–	> 320 µg/mL
N=c1c2ncn([C@@H]3O[C@H](CO)[C@@H](O)[C@H]3O)c2ncn1OCc1ccccc1F.[O-][Cl+3]([O-])([O-])O [Compound 2g, 1-(2-Fluorobenzyloxy)adenosine, perchloric acid salt]	4.97 µg/mL	64 and 34	–	> 320 µg/mL
N=c1c2ncn([C@@H]3O[C@H](CO)[C@@H](O)[C@H]3O)c2ncn1OCc1ccccc1.[O-][Cl+3]([O-])([O-])O [Compound 2dd, 1-Benzyloxyadenosine, perchloric acid salt]	1.77 µg/mL	180	> 2.0	320 µg/mL
CC(On1cnc2c(ncn2[C@@H]2O[C@H](CO)[C@@H](O)[C@H]2O)c1=N)c1ccccc1.[O-][Cl+3]([O-])([O-])O (some centres unmarked) [Compound 2f, 1-(1-Phenylethyloxy)adenosine, perchloric acid salt]	< 0.32 µg/mL	–	–	–
